Assay results: US20250145589A1, “PYRIDINE DERIVATIVE AND USE THEREOF” (SICHUAN HUIYU PHARMACEUTICAL CO., LTD., priority 2021, published 2025)
Read-outs that look alike come from different tables or passages of the source.

How the values were obtained:
PI3Kα = PI3Kα (Homo sapiens (Human), UniProt P42336); assay: Inhibition of PI3Kα efficacy assay (ADP-Glo kinase assay); format: biochemical; conditions: read-out: PI3Kα inhibitory activity (IC50)
Method in brief: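 ADP-Glo luminescent detection of ADP from PI3Kα acting on PI substrate with ATP, 60 min at RT; compounds in 8-point five-fold serial dilution from 2 mM DMSO stock. IC50 from four-parameter variable-slope fit.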

PI3Kδ = PI3Kδ (Homo sapiens (Human), UniProt O00329); assay: Inhibition of PI3Kδ efficacy assay (ADP-Glo kinase assay); format: biochemical; conditions: read-out: PI3Kδ inhibitory activity (IC50)
Method: Test Example 2: Inhibition of PI3Kδ Efficacy assay The ADP-Glo™ kinase assay was used to assess the inhibition of PI3Kδ with our compounds. The utilized proteins and assay reagents were obtained from the ADP-Glo™ Kinase Assay Kit (Promega). Initially, a 2 mM stock solution of the test compound (dissolved in DMSO) was serially diluted in five-fold concentrations using DMSO to obtain eight working solutions 1 (200×) Subsequently, each of the eight working solutions 1 was further diluted in a 20-fold gradient by adding 5 μL into 95 μL of ddH2O, resulting in eight working solutions 2 (10×). […] Subsequently, 2 μL of 2.5×PI and ATP solution mixture were added to each well, mixed, and incubated at RT for 60 minutes. Then, 5 μL of ADP-Glo (containing 10 mM MgCl2) reagent was added to each well, mixed, and incubated at RT for 40 minutes. Finally, 10 μL of the Kinase Detection Reagent was added to each well, mixed, and incubated at RT for 40 minutes. Luminescence values were recorded using a multi-mode microplate reader with luminescence channel settings, and the inhibitory rate was calculated using the following formula: [formula] Data were analyzed using GraphPad Prism with log(inhibitor) vs. response—Variable Slope(four parameters) fitting calculations for IC50 values.

[1] = system: NCI-H358 cells (KRAS G12C mutant); assay: NCI-H358 cell proliferation inhibition (CellTiter-Glo); format: cell-based; conditions: Homo sapiens, NCI-H358, 72 h; H358 cells (G12C mutation), 3 days, Table 6; read-out: NCI-H358 (IC50)

Sequence of PI3Kα (P42336 whole entry): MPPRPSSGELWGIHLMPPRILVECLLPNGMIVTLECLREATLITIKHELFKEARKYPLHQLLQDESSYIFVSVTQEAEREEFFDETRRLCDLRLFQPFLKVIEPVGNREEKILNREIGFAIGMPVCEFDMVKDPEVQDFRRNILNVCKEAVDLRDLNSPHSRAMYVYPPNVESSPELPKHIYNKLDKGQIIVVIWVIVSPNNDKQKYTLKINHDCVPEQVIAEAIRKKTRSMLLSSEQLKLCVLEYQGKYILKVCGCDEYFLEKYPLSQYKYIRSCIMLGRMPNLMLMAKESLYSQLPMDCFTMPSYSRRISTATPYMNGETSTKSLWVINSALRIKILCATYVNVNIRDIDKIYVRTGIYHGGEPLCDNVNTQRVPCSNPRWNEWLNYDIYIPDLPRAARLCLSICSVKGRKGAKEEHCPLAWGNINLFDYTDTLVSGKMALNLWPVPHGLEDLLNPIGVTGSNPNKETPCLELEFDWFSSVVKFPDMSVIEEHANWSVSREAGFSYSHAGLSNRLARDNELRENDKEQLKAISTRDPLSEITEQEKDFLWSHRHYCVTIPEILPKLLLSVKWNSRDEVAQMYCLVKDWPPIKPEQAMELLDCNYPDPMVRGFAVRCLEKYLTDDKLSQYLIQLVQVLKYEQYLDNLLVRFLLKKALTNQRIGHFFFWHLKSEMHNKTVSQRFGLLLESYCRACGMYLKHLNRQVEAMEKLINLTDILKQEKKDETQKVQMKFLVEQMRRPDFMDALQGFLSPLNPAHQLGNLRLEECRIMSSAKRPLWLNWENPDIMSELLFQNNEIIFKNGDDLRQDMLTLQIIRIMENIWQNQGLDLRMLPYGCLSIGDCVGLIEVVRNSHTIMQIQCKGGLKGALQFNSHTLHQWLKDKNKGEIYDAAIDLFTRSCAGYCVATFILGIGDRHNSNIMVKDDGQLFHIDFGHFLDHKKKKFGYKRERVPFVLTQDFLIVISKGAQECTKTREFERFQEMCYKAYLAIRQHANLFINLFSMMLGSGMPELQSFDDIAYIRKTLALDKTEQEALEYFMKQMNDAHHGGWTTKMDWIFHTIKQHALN
Sequence of PI3Kα (P27986 whole entry partner): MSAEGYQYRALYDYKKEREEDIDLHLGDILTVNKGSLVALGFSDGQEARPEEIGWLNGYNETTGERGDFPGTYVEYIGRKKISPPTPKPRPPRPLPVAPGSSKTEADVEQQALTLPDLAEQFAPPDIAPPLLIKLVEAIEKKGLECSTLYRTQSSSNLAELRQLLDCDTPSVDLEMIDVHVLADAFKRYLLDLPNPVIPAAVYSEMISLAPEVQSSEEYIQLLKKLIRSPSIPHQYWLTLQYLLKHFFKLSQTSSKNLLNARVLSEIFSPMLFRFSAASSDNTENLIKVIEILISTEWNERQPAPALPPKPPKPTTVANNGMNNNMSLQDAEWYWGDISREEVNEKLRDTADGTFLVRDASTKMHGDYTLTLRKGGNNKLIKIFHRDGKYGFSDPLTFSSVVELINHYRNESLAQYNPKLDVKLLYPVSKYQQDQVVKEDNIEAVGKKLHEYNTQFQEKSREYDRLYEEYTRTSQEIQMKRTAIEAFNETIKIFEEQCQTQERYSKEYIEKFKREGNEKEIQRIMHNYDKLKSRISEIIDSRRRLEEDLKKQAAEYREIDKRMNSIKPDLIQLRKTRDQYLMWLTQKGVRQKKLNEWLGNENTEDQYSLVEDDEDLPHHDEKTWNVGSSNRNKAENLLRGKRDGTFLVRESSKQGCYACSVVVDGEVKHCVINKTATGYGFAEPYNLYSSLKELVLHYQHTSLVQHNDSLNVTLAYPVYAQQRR
Sequence of PI3Kδ (O00329 whole entry): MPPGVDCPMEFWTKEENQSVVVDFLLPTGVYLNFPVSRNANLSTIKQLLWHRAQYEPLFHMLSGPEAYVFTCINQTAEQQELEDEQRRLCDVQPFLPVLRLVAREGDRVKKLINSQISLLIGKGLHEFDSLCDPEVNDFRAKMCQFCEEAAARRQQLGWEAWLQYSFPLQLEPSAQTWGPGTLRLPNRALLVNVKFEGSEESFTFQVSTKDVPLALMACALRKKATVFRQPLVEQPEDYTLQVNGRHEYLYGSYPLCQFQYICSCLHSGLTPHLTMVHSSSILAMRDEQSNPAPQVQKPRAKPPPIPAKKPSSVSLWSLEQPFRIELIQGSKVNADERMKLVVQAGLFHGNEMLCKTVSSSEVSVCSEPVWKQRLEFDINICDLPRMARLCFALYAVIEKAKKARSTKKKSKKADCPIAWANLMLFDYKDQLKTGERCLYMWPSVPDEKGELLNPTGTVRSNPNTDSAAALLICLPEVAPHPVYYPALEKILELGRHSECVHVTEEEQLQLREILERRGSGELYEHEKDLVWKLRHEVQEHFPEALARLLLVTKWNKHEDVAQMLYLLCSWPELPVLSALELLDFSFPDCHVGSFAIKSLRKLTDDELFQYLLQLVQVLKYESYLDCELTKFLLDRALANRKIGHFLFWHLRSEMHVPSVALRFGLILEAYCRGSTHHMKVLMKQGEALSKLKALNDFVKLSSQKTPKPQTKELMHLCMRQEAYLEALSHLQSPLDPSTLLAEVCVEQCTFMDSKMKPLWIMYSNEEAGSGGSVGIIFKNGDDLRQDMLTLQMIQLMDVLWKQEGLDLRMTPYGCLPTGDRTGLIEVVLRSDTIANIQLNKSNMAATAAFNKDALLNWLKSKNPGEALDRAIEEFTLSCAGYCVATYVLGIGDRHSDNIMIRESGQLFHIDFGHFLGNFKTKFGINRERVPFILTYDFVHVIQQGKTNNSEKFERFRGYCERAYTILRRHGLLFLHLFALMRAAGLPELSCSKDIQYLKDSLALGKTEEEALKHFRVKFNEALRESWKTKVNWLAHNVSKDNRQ
Sequence of PI3Kδ (P27986 whole entry partner): as the sequence (P27986 whole entry partner) above

Compound | IC50 (PI3Kα; Table 1) [nM] | IC50 (PI3Kδ; Table 1) [nM] | IC50 [1] [nM] | IC50 (PI3Kα; Table 2) [nM] | IC50 (PI3Kδ; Table 2) [nM]
C=CC(=O)N1CCN(c2ncnc3ccc(-c4cnc(OC)c(NS(=O)(=O)C5CCCCC5)c4)cc23)CC1 [Example 25, N-(5-(4-(4-acryloylpiperazin-1-yl)quinazolin-6-yl)-2-methoxypyridin-3-yl)cyclohexanesulfonamide] | 26.9 | 127 | 288 | – | –
COc1ncc(-c2ccc3ncnc(N4CCN(C(=O)/C=C/C(C)=O)CC4)c3c2)cc1NS(=O)(=O)C1CCCCC1 [Example 26, (E)-N-(2-methoxy-5-(4-(4-(4-oxopent-2-enoyl)piperazin-1-yl)quinazolin-6-yl)pyridin-3-yl)cyclohexanesulfonamide] | 44.6 | 265 | 142 | – | –
C=CC(=O)N1CCN(c2ncnc3ccc(-c4cnc(Cl)c(NS(=O)(=O)c5ccc(F)cc5F)c4)cc23)CC1 [Example 33, N-(5-(4-(4-acryloylpiperazin-1-yl)quinazolin-6-yl)-2-chloropyridin-3-yl)-2,4-difluorobenzenesulfonamide] | 12.6 | 68.7 | 333 | – | –
C=CC(=O)N1CCN(c2ncnc3ccc(-c4cnc(Cl)c(NS(=O)(=O)c5ccc(Cl)s5)c4)cc23)CC1 [Example 35, N-(5-(4-(4-acryloylpiperazin-1-yl)quinazolin-6-yl)-2-chloropyridin-3-yl)-5-chlorothiophene-2-sulfonamide] | 5.8 | 117 | 900 | – | –
CC(=O)/C=C/C(=O)N1CCN(c2ncnc3ccc(-c4cnc(Cl)c(NS(=O)(=O)c5ccc(Cl)s5)c4)cc23)CC1 [Example 36, (E)-5-chloro-N-(2-chloro-5-(4-(4-(4-oxopent-2-enoyl)piperazin-1-yl)quinazolin-6-yl)pyridin-3-yl)thiophene-2-sulfonamide] | 21.5 | 140 | 278 | – | –
C=CC(=O)N1CCN(c2ncnc3c2CN(c2cnc(OC)c(NS(=O)(=O)c4ccc(F)cc4F)c2)CC3)CC1 [Example 41, N-(5-(4-(4-acryloylpiperazin-1-yl)-7,8-dihydropyrido[4,3-d]pyrimidin-6 (5H)-yl)-2-methoxypyridin-3-yl)-2,4-difluorobenzenesulfonamide] | 7.6 | 10.1 | 4290 | – | –
C=C(F)C(=O)N1CCN(c2ncnc3ccc(-c4cnc(OC)c(NS(=O)(=O)c5c(F)cccc5F)c4)cc23)CC1 [Example 43, 2,6-difluoro-N-(5-(4-(4-(2-fluoroacryloyl)piperazin-1-yl)quinazolin-6-yl)-2-methoxypyridin-3-yl) benzenesulfonamide] | – | – | 27.9 | 2.5 | 12.9
COc1ncc(-c2ccc3ncnc(N4CCN(C(=O)/C=C/C(F)(F)F)CC4)c3c2)cc1NS(=O)(=O)c1c(F)cccc1F [Example 44, (E)-2,6-difluoro-N-(2-methoxy-5-(4-(4-(4,4,4-trifluorobut-2-enoyl)piperazin-1-yl)quinazolin-6-yl)pyridin-3-yl) benzenesulfonamide] | – | – | 41.6 | 4.3 | 17.5
C=C(F)C(=O)N1CCN(c2ncnc3ccc(-c4cnc(OC)c(NS(=O)(=O)c5c(F)cccc5F)c4)cc23)[C@@H](C)C1 [Example 45, (S)-2,6-difluoro-N-(5-(4-(4-(2-fluoroacryloyl)-2-methylpiperazin-1-yl)quinazolin-6-yl)-2-methoxypyridin-3-yl) benzenesulfonamide] | – | – | 164 | 2.8 | 38.6
C=C(F)C(=O)N1CC2(CCN(c3ncnc4ccc(-c5cnc(OC)c(NS(=O)(=O)c6c(F)cccc6F)c5)cc34)CC2)C1 [Example 47, 2,6-difluoro-N-(5-(4-(2-(2-fluoroacryloyl)-2,7-diazaspiro[3.5]nonan-7-yl)quinazolin-6-yl)-2-methoxypyridin-3-yl) benzenesulfonamide] | – | – | 34.3 | 2.2 | 25.2
C=C(F)C(=O)N1CC2(CCN(c3ncnc4ccc(-c5cnc(OC)c(NS(=O)(=O)c6c(F)cccc6F)c5)cc34)C2)C1 [Example 48, 2,6-difluoro-N-(5-(4-(2-(2-fluoroacryloyl)-2,6-diazaspiro[3.4]octan-6-yl)quinazolin-6-yl)-2-methoxypyridin-3-yl) benzenesulfonamide] | – | – | 52.6 | 0.63 | 13.2

The remaining lines, values ahead:

IC50 (PI3Kα; Table 1) [nM] | IC50 (PI3Kδ; Table 1) [nM] | IC50 [1] [nM] | IC50 (PI3Kα; Table 2) [nM] | IC50 (PI3Kδ; Table 2) [nM] | Compound
– | – | 31.1 | 0.61 | 11.4 | C=CC(=O)N1CC2(CCN(c3ncnc4ccc(-c5cnc(OC)c(NS(=O)(=O)c6c(F)cccc6F)c5)cc34)CC2)C1 [Example 50, N-(5-(4-(2-acryloyl-2,7-diazaspiro[3.5]nonan-7-yl)quinazolin-6-yl)-2-methoxypyridin-3-yl)-2,6-difluorobenzene-sulfonamide]
– | – | 39.5 | 1.2 | 43.5 | C=CC(=O)N1CC(N2CCN(c3ncnc4ccc(-c5cnc(OC)c(NS(=O)(=O)c6ccc(F)cc6F)c5)cc34)CC2)C1 [Example 55, N-(5-(4-(4-(1-acryloylazetidin-3-yl)piperazin-1-yl)quinazolin-6-yl)-2-methoxypyridin-3-yl)-2,4-difluorobenzene-sulfonamide]
– | – | 29.9 | 1.9 | 33.4 | C=C(F)C(=O)N1CC(N2CCN(c3ncnc4ccc(-c5cnc(OC)c(NS(=O)(=O)c6ccc(F)cc6F)c5)cc34)CC2)C1 [Example 57, 2,4-difluoro-N-(5-(4-(4-(1-(2-fluoroacryloyl)azetidin-3-yl)piperazin-1-yl)quinazolin-6-yl)-2-methoxypyridin-3-yl)benzenesulfon-amide]
– | – | 48.2 | 3.9 | 13.5 | C=C(F)C(=O)N1CC2(CCN(c3ncnc4ccc(-c5cnc(OC)c(NS(=O)(=O)c6ccc(F)cc6F)c5)cc34)C2)C1 [Example 60, 2,4-difluoro-N-(5-(4-(2-(2-fluoroacryloyl)-2,6-diazaspiro[3.4]octan-6-yl)quinazolin-6-yl)-2-methoxy-pyridin-3-yl) benzene-sulfonamide]
– | – | 15.1 | 11.8 | 12.5 | COc1ncc(-c2ccc3ncnc(N4CCN(C(=O)/C=C/c5ncco5)CC4)c3c2)cc1NS(=O)(=O)c1ccc(F)cc1F [Example 62, (E)-2,4-difluoro-N-(2-methoxy-5-(4-(4-(3-(oxazol-2-yl)acryloyl)piperazin-1-yl)quinazolin-6-yl)pyridin-3-yl) benzene-sulfonamide]
– | – | 12.6 | 16.7 | 14.6 | COC/C=C/C(=O)N1CCN(c2ncnc3ccc(-c4cnc(OC)c(NS(=O)(=O)c5ccc(F)cc5F)c4)cc23)CC1 [Example 64, (E)-2,4-difluoro-N-(2-methoxy-5-(4-(4-(4-methoxybut-2-enoyl)piperazin-1-yl)quinazolin-6-yl)pyridin-3-yl) benzene-sulfonamide]
– | – | 25.1 | 3.9 | 53 | C=C(COC)C(=O)N1CCN(c2ncnc3ccc(-c4cnc(OC)c(NS(=O)(=O)c5ccc(F)cc5F)c4)cc23)CC1 [Example 65, 2,4-difluoro-N-(2-methoxy-5-(4-(4-(2-(methoxy-methyl)acryloyl)piperazin-1-yl)quinazolin-6-yl)pyridin-3-yl) benzene-sulfonamide]
– | – | 13.5 | 13.8 | 14.8 | C=C(OC)C(=O)N1CCN(c2ncnc3ccc(-c4cnc(OC)c(NS(=O)(=O)c5ccc(F)cc5F)c4)cc23)CC1 [Example 66, 2,4-difluoro-N-(2-methoxy-5-(4-(4-(2-methoxy-acryloyl)piperazin-1-yl)quinazolin-6-yl)pyridin-3-yl) benzene-sulfonamide]
– | – | 861 | 1.4 | 27.7 | C=C(F)C(=O)N1C[C@H](C)N(c2ncnc3ccc(-c4cnc(OC)c(NS(=O)(=O)c5ccc(F)cc5F)c4)cc23)C[C@H]1C [Example 68, 2,4-difluoro-N-(5-(4-((2S,5R)-4-(2-fluoroacryloyl)-2,5-dimethyl-piperazin-1-yl)quinazolin-6-yl)-2-methoxy-pyridin-3-yl) benzene-sulfonamide]
– | – | 75 | 2.1 | 31.5 | COc1ncc(-c2ccc3ncnc(N4CCC5(CC=CC5=O)CC4)c3c2)cc1NS(=O)(=O)c1c(F)cccc1F [Example 71, 2,6-difluoro-N-(2-methoxy-5-(4-(1-oxo-8-azaspiro[4,5]dec-2-en-8-yl)quinazolin-6-yl)pyridin-3-yl)benzenesulfonamide]
– | – | 14.4 | 5.9 | 24.3 | COc1ncc(-c2ccc3ncnc(N4CCN(C(=O)C5=CC(=O)CCC5)CC4)c3c2)cc1NS(=O)(=O)c1ccc(F)cc1F [Example 72, 2,4-difluoro-N-(2-methoxy-5-(4-(4-(3-oxocyclohex-1-ene-1-carbonyl)piperazin-1-yl)quinazolin-6-yl)pyridin-3-yl)benzenesulfonamide]
